Our source for the EC50 values is patent publication US6288091A, “Antiherpes virus compounds and methods for their preparation and use” (Boehringer Ingelheim Ltd., priority 1999, dated 2001).

One experiment relates to HCMV (strain AD169). Kind of experiment: Inhibition of HCMV replication, plaque reduction assay (PRA, Hs-68 cells). The experiment is classed as cell-based, Human Cytomegalovirus (HCMV). Conditions: Human betaherpesvirus 5, AD169, Hs68, Group 1 Table 1 entries, read-out: PRA CMV EC50. Here is the method: C) Inhibition of Human Cytomegalovirus (HCMV) Replication
The effect of compounds on the replication of HCMV has been measured by using an ELISA-based assay (ELISA) and a plaque reduction assay (PRA).
Hs-68 cells (ATCC # CRL 1635) were seeded in 12-well plates at 83,000 cells/well in 1 mL of DMEM medium (Gibco Canada Inc.) supplemented with 10% fetal bovine serum (FBS, Gibco Canada Inc.). The plates were incubated for 3 days at 37° to allow the cells to reach 80-90% confluency prior to the assay.
The medium was removed from the cells by aspiration. The cells were then infected with approximately 50 PFU of HCMV (strain AD169, ATCC VR-538) in DMEM medium supplemented with 5% inactivated FBS (assay medium). The virus was allowed to adsorb to cells for 2 h at 37°. Following viral adsorption, the medium was removed from the wells by aspiration. The cells were then incubated with or without 1 mL of appropriate concentrations of test reagent in assay medium. After 4 days of incubation at 37°, the medium was exchanged with fresh medium containing test compound and 4 days later the cells were fixed with 1% aqueous formaldehyde and stained with a 2% crystal violet solution in 20% ethanol in water. Microscopic plaques were counted using a stereomicroscope. Drug effects were calculated as a percent reduction in the number of plaques in the presence of each drug concentration compared to the number observed in the absence of drug. Ganciclovir was used as a positive control in all experiments.
The EC50 values obtained according to this assay for certain thiazolyl derivatives of this invention are listed in the following tables under the heading PRA CMV.
For `Cc1cc(C)nc(SCC(=O)N(CC(=O)Nc2ccc(-c3csc(N)n3)cc2)Cc2ccccc2C)n1` [Example 130], the EC50 stood at 8.8 µM.

With `Cc1ccccc1CN(CC(=O)Nc1ccc(-c2csc(N)n2)cc1)C(=O)c1cccs1` [Example 128], the 50% effective concentration (EC50) was found to be 28 µM. On the same count and under the same terms, with `Cc1ccccc1CN(CC(=O)Nc1ccc(-c2csc(N)n2)cc1)C(=O)COc1c(C)cccc1C` [Example 129] the figure was 12 µM.

Take `Cc1ccccc1CN(CC(=O)Nc1ccc(-c2csc(N)n2)cc1)C(=O)Cc1ccsc1` [Example 132]: the EC50 came to 14 µM.

Take `Nc1nc(-c2ccc(NC(=O)CN(Cc3ccccc3)C(=O)c3ccsc3)cc2)cs1` [Example 115]: the EC50 came to 49 µM. The same measure, in the same setting: with `Nc1nc(-c2ccc(NC(=O)CN(Cc3ccccc3)C(=O)Cc3ccsc3)cc2)cs1` [Example 117] the figure was 35 µM. For `Cc1ccccc1CN(CC(=O)Nc1ccc(-c2csc(N)n2)cc1)C(=O)Cc1cccs1` [Example 131], the EC50 came out at 16 µM.

As for `Cc1ccccc1CN(CC(=O)Nc1ccc(-c2csc(N)n2)cc1)C(=O)c1ccsc1` [Example 133], the EC50 stood at 17 µM.

Staying with this experiment, now noted: Human betaherpesvirus 5, AD169, Hs68, Group 1 Table 2 entries, read-out: PRA CMV EC50.
In the case of `Nc1nc(-c2ccc(NC(=O)CCN(CCN3CCCC3)Cc3ccccc3)cc2)cs1` [Example 27], the EC50 stood at 15 µM. On the same count and under the same terms, with `Nc1nc(-c2ccc(NC(=O)CCN(Cc3ccccc3)Cc3cccnc3)cc2)cs1` [Example 29] the figure was 14 µM; with `Nc1nc(-c2ccc(NC(=O)CCN(Cc3ccccc3)Cc3ccccc3O)cc2)cs1` [Example 30], 13 µM; with `Nc1nc(-c2ccc(NC(=O)CCN(Cc3ccccc3)Cc3ccccn3)cc2)cs1` [Example 26], 14 µM.

Still in this experiment, the particulars now being: Human betaherpesvirus 5, AD169, Hs68, Group 1 Table 3 entries, read-out: PRA CMV EC50.
Consider `C[C@H](c1ccccc1)N(CC(=O)Nc1ccc(-c2csc(NC(=O)OC(C)(C)C)n2)cc1)C(=O)Cc1ccccn1` [Example 23], for which the EC50 stood at 2.8 µM.

With `CC(=O)Nc1nc(-c2ccc(NC(=O)CN(C(=O)C3CCCCC3)[C@H](C)c3ccccc3)cc2)cs1` [Example 26], the EC50 amounted to 15 µM.

Take `C[C@@H](c1ccccc1)N(CC(=O)Nc1ccc(-c2csc(NC(=O)OC(C)(C)C)n2)cc1)C(=O)Cc1ccccn1` [Example 25]: the EC50 came to 2.7 µM. The same measure, in the same setting: with `C[C@H](c1ccccc1)N(CC(=O)Nc1ccc(-c2csc(NC(=O)OC(C)(C)C)n2)cc1)C(=O)c1ccncc1` [Example 24] the figure was 3.7 µM. On the same count and under the same terms, with `Cc1cc(C)nc(SCC(=O)N(CC(=O)Nc2ccc(-c3csc(NC(=O)OC(C)(C)C)n3)cc2)Cc2ccccc2)n1` [Example 21] the figure was 1.2 µM. Regarding `C[C@H](c1ccccc1)N(CC(=O)Nc1ccc(-c2csc(NC(=O)OC(C)(C)C)n2)cc1)C(=O)C1CCCCC1` [Example 22], the EC50 came out at 1.3 µM.

The same experiment, now with this note: Human betaherpesvirus 5, AD169, Hs68, Group 1 Table 4 entries, read-out: PRA CMV EC50.
For the compound `CC(C)(C)OC(=O)Nc1nc(-c2ccc(NC(=O)CCN(Cc3ccccc3)Cc3ccccc3)cc2)cs1` [Example 1], the EC50 stood at 1.6 µM. With `CC(C)(C)NC(=O)Nc1nc(-c2ccc(NC(=O)CCN(Cc3ccccc3)Cc3ccccc3)cc2)cs1` [Example 2], the EC50 came to 1.5 µM.

Staying with this experiment, now noted: Human betaherpesvirus 5, AD169, Hs68, Group 2 Table 1 entries, read-out: PRA CMV EC50.
Take `CCCCN(CC)C(=O)Nc1ccc(-c2csc(NC(=O)OC(C)(C)C)n2)cc1` [Example 31]: the EC50 was 2 µM.

`CCCCN(CCO)C(=O)Nc1ccc(-c2csc(NC(=O)OC(C)(C)C)n2)cc1` [Example 32]: the EC50 came out at 2 µM. As to `CCCCN(CCCC)C(=O)Nc1ccc(-c2csc(Nc3ccccn3)n2)cc1` [Example 35], the EC50 was 2.2 µM. Same read-out and setting: with `Nc1nc(-c2ccc(NC(=O)NCCc3c[nH]c4ccccc34)cc2)cs1` [Example 19] the figure was 12 µM; with `Nc1nc(-c2ccc(NC(=O)Nc3nccs3)cc2)cs1` [Example 18], > 56 µM. Still for that read-out and setting: with `CCCCN(CC#N)C(=O)Nc1ccc(-c2csc(NC(=O)OC(C)(C)C)n2)cc1` [Example 33] the figure was 2.4 µM; with `CCCCN(CCCC)C(=O)Nc1ccc(-c2csc(Nc3cccnc3)n2)cc1` [Example 36], 3 µM; with `CN(CCc1ccncc1)C(=O)Nc1ccc(-c2csc(NC(=O)OC(C)(C)C)n2)cc1` [Example 29], 3.9 µM.

In the case of `CCCCNc1nc(-c2ccc(NC(=O)N(CCCC)CCCC)cc2)cs1` [Example 34], the EC50 is 10 µM.
